Data taken from US9650361B2, “N-(pyridin-2-yl)pyrimidin-4-amine derivatives containing a sulfoximine group” (BAYER PHARAM AKTIENGESELLSCHAFT, priority 2012, dated 2017).
pIC50: −log10 of the molar value. Where two headings read alike, the source gives them in different places.

Tests used:
CDK9/CycT1 = biological target: T1, CDK9/CycT1 (Homo sapiens, UniProt P50750); experiment: CDK9/CycT1 kinase assay (Method 1a); assay type: biochemical; conditions: 10 μM ATP
T1 construct: Recombinant full-length His-tagged human CDK9 and CycT1; His; purchased Invitrogen PV4131; host or cells: insect cells
T1 sequence (P50750 whole entry): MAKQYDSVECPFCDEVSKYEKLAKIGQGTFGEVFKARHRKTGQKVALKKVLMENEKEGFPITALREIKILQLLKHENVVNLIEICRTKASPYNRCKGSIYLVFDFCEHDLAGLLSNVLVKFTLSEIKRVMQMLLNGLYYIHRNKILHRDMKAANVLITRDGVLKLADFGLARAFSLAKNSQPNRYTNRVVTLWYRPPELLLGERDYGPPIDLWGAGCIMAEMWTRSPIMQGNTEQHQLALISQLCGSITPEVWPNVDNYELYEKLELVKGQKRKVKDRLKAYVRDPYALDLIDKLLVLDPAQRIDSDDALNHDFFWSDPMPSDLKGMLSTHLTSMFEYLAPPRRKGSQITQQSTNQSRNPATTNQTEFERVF
T1 sequence (O60563 whole entry partner): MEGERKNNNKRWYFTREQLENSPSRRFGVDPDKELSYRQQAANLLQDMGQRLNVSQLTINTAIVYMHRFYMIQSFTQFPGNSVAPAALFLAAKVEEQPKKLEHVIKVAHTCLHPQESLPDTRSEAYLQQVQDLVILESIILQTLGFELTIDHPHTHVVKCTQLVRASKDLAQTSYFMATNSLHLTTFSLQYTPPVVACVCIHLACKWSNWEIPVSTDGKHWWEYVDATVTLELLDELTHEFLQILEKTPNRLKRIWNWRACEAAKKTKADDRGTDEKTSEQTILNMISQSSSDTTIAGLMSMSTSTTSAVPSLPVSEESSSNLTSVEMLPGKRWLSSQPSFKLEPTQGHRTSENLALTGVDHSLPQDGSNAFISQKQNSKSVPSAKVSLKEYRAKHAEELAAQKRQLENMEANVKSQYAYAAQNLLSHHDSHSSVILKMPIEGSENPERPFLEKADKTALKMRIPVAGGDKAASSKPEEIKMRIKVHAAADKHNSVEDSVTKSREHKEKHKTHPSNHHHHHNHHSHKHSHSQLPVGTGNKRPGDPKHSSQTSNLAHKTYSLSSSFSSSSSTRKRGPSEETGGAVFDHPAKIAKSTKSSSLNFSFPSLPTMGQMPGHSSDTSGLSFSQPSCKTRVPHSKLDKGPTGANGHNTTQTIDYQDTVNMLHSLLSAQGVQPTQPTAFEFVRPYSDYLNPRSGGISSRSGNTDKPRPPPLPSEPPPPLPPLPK
Description: 1a. CDK9/CycT1 Kinase Assay:
CDK9/CycT1-inhibitory activity of compounds of the present invention was quantified employing the CDK9/CycT1 TR-FRET assay as described in the following paragraphs:
Recombinant full-length His-tagged human CDK9 and CycT1, expressed in insect cells and purified by Ni-NTA affinity chromatography, were purchased from Invitrogen (Cat. No PV4131). As substrate for the kinase reaction biotinylated peptide biotin-Ttds-YISPLKSPYKISEG (C-terminus in amid form) was used which can be purchased e.g. form the company JERINI Peptide Technologies (Berlin, Germany) For the assay 50 nl of a 100 fold concentrated solution of the test compound in DMSO was pipetted into a black low volume 384 well microtiter plate (Greiner Bio-One, Frickenhausen, Germany), 2 μl of a solution of CDK9/CycT1 in aqueous assay buffer [50 mM Tris/HCl pH 8.0, 10 mM MgCl2, 1.0 mM dithiothreitol, 0.1 mM sodium ortho-vanadate, 0.01% (v/v) Nonidet-P40 (Sigma)] were added and the mixture was incubated for 15 min at 22° C. to allow pre-binding of the test compounds to the enzyme before the start of the kinase reaction. Then the kinase reaction was started by the addition of 3 μl of a solution of adenosine-tri-phosphate (ATP, 16.7 μM=>final conc. in the 5 μl assay volume is 10 μM) and substrate (1.67 μM=>final conc. in the 5 μl assay volume is 1 μM) in assay buffer and the resulting mixture was incubated for a reaction time of 25 min at 22° C. The concentration of CDK9/CycT1 was adjusted depending of the activity of the enzyme lot and was chosen appropriate to have the assay in the linear range, typical concentrations were in the range of 1 μg/ml. The reaction was stopped by the addition of 5 μl of a solution of TR-FRET detection reagents (0.2 μM streptavidine-XL665 [Cisbio Bioassays, Codolet, France] and 1 nM anti-RB(pSer807/pSer811)-antibody from BD Pharmingen [#558389] and 1.2 nM LANCE EU-W1024 labeled anti-mouse IgG antibody [Perkin-Elmer, product no. AD0077]) in an aqueous EDTA-solution (100 mM EDTA, 0.2% (w/v) bovine serum albumin in 100 mM HEPES/NaOH pH 7.0).
The resulting mixture was incubated 1 h at 22° C. to allow the formation of complex between the phosphorylated biotinylated peptide and the detection reagents. Subsequently the amount of phosphorylated substrate was evaluated by measurement of the resonance energy transfer from the Eu-chelate to the streptavidine-XL. Therefore, the fluorescence emissions at 620 nm and 665 nm after excitation at 350 nm was measured in a HTRF reader, e.g. a Rubystar (BMG Labtechnologies, Offenburg, Germany) or a Viewlux (Perkin-Elmer). The ratio of the emissions at 665 nm and at […] was taken as the measure for the amount of phosphorylated substrate. The data were normalised (enzyme reaction without inhibitor=0% inhibition, all other assay components but no enzyme=100% inhibition).

HeLa-MaTu-ADR cells = experiment: Proliferation assay, HeLa-MaTu-ADR (Method 3); assay type: cell-based, human; conditions: 4 days, crystal violet, read-out: Inhibition of HeLa-MaTu-ADR cell proliferation IC50
Experimental: (§1) Cultivated tumour cells (HeLa, human cervical tumour cells, ATCC CCL-2; NCI-H460, human non-small cell lung carcinoma cells, ATCC HTB-177; A2780, human ovarian carcinoma cells, ECACC #93112519; DU 145, hormone-independent human prostate carcinoma cells, ATCC HTB-81; HeLa-MaTu-ADR, multidrug-resistant human cervical carcinoma cells, EPO-GmbH Berlin; Caco-2, human colorectal carcinoma cells, ATCC HTB-37; B16F10, mouse melanoma cells, ATCC CRL-6475) were plated at a density of 5,000 cells/well (DU145, HeLa-MaTu-ADR), 3,000 cells/well (NCI-H460, HeLa), 2,500 cells/well (A2780), 1,500 cells/well (Caco-2), or 1,000 cells/well (B16F10) in a 96-well multititer plate in 200 μL of their respective growth medium supplemented 10% fetal calf serum. After 24 hours, the cells of one plate (zero-point plate) were stained with crystal violet (see below), while the medium of the other plates was replaced by fresh culture medium (200 μl), to which the test substances were added in various concentrations (0 μM, as well as in the range of 0.001-10 μM; the final concentration of the solvent dimethyl sulfoxide was 0.5%). The cells were incubated for 4 days in the presence of test substances. Cell proliferation was determined by staining the cells with crystal violet: the cells were fixed by adding 20 μl/measuring point of an 11% glutaric aldehyde solution for 15 minutes at room temperature. After three washing cycles of the fixed cells with water, the plates were dried at room temperature. The cells were stained by adding 100 μl/measuring point of a 0.1% crystal violet solution (pH 3.0). After three washing cycles of the stained cells with water, the plates were dried at room temperature. The dye was dissolved by adding 100 μl/measuring point of a 10% acetic acid solution. The extinction was determined by photometry at a wavelength of 595 nm. The change of cell number, in percent, was calculated by normalization of the measured values to the extinction values of the zero-point plate (=0%) and the extinction of the untreated (0 μm) cells (=100%). The IC50 values (inhibitory concentration at 50% of maximal effect) were determined by means of a 4 parameter fit.

DU145 cells = experiment: Proliferation assay, DU145 (Method 3); assay type: cell-based, human; conditions: 4 days, crystal violet, read-out: Inhibition of DU145 cell proliferation IC50
Experimental: as §1

Caco-2 cells = experiment: Proliferation assay, Caco-2 (Method 3); assay type: cell-based, human; conditions: 4 days, crystal violet, read-out: Inhibition of Caco-2 cell proliferation IC50
Experimental: as §1

Structure (SMILES) | pIC50 (CDK9/CycT1) | pIC50 (HeLa-MaTu-ADR cells; Homo sapiens, 96 h) | pIC50 (DU145 cells; Homo sapiens, DU-145, 96 h) | pIC50 (Caco-2 cells; Homo sapiens, Caco-2, 96 h) | pIC50 (HeLa-MaTu-ADR cells) | pIC50 (DU145 cells) | pIC50 (Caco-2 cells)
COc1cc(F)ccc1-c1cc(Nc2cc(CS(C)(=N)=O)ccn2)ncn1 (racemic) [Example 1, (rac)-6-(4-Fluoro-2-methoxyphenyl)-N-{4-[(S-methylsulfonimidoyl)methyl]pyridin-2-yl}pyrimidin-4-amine] | 8.30 | 6.47 | 6.51 | 6.27 |  |  | 
COc1cc(F)ccc1-c1cc(Nc2cc(CS(C)(=N)=O)cc(Cl)n2)ncn1 (racemic) [Example 4, (rac)-N-{6-Chloro-4-[(S-methylsulfonimidoyl)methyl]pyridin-2-yl}-6-(4-fluoro-2-methoxyphenyl)pyrimidin-4-amine] | 8.40 | 7.01 | 7.11 | 6.84 |  |  | 
COc1cc(F)ccc1-c1cc(Nc2cc(CS(C)(=N)=O)cc(C)n2)ncn1 (racemic) [Example 7, (rac)-6-(4-Fluoro-2-methoxyphenyl)-N-{6-methyl-4-[(S-methylsulfonimidoyl)methyl]pyridin-2-yl}pyrimidin-4-amine] | 8.30 | 6.66 | 6.92 | 6.64 |  |  | 
COc1cc(F)ccc1-c1cc(Nc2cc(CS(C)(=N)=O)cc(C(F)(F)F)n2)ncn1 (racemic) [Example 10, (rac)-6-(4-Fluoro-2-methoxyphenyl)-N-{4-[(S-methylsulfonimidoyl)methyl]-6-(trifluoromethyl)pyridin-2-yl}pyrimidin-4-amine] | 8.30 | 6.98 | 7.06 | 6.94 |  |  | 
COc1cc(F)ccc1-c1cc(Nc2cc(CS(C)(=N)=O)ccn2)ncn1 (single isomer, unassigned) [Example 2, 6-(4-Fluoro-2-methoxyphenyl)-N-{4-[(S-methylsulfonimidoyl)methyl]pyridin-2-yl}pyrimidin-4-amine] | 8.05 |  |  |  |  |  | 
COc1cc(F)ccc1-c1cc(Nc2cc(CS(C)(=N)=O)ccn2)ncn1 (single isomer, unassigned) [Example 3, 6-(4-Fluoro-2-methoxyphenyl)-N-{4-[(S-methylsulfonimidoyl)methyl]pyridin-2-yl}pyrimidin-4-amine] | 8.40 |  |  |  |  |  | 
COc1cc(F)ccc1-c1cc(Nc2cc(CS(C)(=N)=O)cc(Cl)n2)ncn1 (single isomer, unassigned) [Example 5, N-{6-Chloro-4-[(S-methylsulfonimidoyl)methyl]pyridin-2-yl}-6-(4-fluoro-2-methoxyphenyl)pyrimidin-4-amine] | 8.30 | 6.96 | 6.98 | 6.78 |  |  | 
COc1cc(F)ccc1-c1cc(Nc2cc(CS(C)(=N)=O)cc(Cl)n2)ncn1 (single isomer, unassigned) [Example 6, N-{6-Chloro-4-[(S-methylsulfonimidoyl)methyl]pyridin-2-yl}-6-(4-fluoro-2-methoxyphenyl)pyrimidin-4-amine] | 8.40 |  |  |  | 6.95 | 6.96 | 6.75
COc1cc(F)ccc1-c1cc(Nc2cc(CS(C)(=N)=O)cc(C)n2)ncn1 (single isomer, unassigned) [Example 8, 6-(4-Fluoro-2-methoxyphenyl)-N-{6-methyl-4-[(S-methylsulfonimidoyl)methyl]pyridin-2-yl}pyrimidin-4-amine] | 8.40 | 6.95 | 6.75 | 6.61 |  |  | 
COc1cc(F)ccc1-c1cc(Nc2cc(CS(C)(=N)=O)cc(C)n2)ncn1 (single isomer, unassigned) [Example 9, 6-(4-Fluoro-2-methoxyphenyl)-N-{6-methyl-4-[(S-methylsulfonimidoyl)methyl]pyridin-2-yl}pyrimidin-4-amine] | 8.40 |  |  |  | 6.75 | 6.90 | 6.67
